Measurements from BindingDB's records for doi:10.1111/cbdd.12307 (Peking University, 2014).

molecular target: T1, Phospholipase A2, membrane associated (Homo sapiens, UniProt P14555); test: Inhibitory Activity Assay; details: pH 8
T1 sequence (P14555 whole entry): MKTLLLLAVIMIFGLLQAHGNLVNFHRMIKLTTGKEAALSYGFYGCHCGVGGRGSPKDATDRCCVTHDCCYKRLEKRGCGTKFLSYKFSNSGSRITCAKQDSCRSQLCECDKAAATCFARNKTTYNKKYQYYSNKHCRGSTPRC
Protocol: The reaction mixture contained 160 uL of reaction buffer [50 mM Tris-HCl (pH 8.0), 100 mM NaCl, 5 ug/mL bovine serum albumin (BSA), 5 uM CaCl2, and 10 mM anilinonaphthalene sulfonate (ANS)], 20 uL of substrate stock solution (2 mM DMPC), and 2 mM of sodium deoxycholate in water. After 5 min of sonication, 10 uL of inhibitor stock solution (in DMSO) were incubated at 28 uC for 10 min. The reactions were started by adding 10 uL of hnps-PLA2 stock solution (0.1 mg/mL) and monitored by excitation at 377 nm and emission at 470 nm.

Row | SMILES | IC50
1 | O=C(COc1ccc2ccccc2c1)N/N=C/c1cccc(OC(=O)c2cc([NH+]([O-])O)cc([NH+]([O-])O)c2)c1 (configuration not stated) [SPECS AG-690/40108589 (7)] | 12.2 µM
2 | O=C(N[C@H](Cc1ccc2ccccc2c1)C(=O)O)OCC1c2ccccc2-c2ccccc21 [DCSD 002847 (2)] | 8.6 µM
3 | O=C(CCc1ccccc1)CC[C@H](NC(=O)OCC1c2ccccc2-c2ccccc21)C(=O)O [DCSD 001850 (5)] | 34.5 µM
4 | O=C(N[C@H](Cc1ccccc1)C(=O)O)OCC1c2ccccc2-c2ccccc21 [DCSD 002855 (1)] | 47.5 µM
5 | O=C(N[C@@H](Cc1ccc(O)c([NH+]([O-])O)c1)C(=O)O)OCC1c2ccccc2-c2ccccc21 (some centres not stated) [DCSD 002267 (4)] | 41 µM
6 | O=C(N[C@@H](Cc1ccc([NH+]([O-])O)cc1)C(=O)O)OCC1c2ccccc2-c2ccccc21 (some centres not stated) [DCSD 001360 (3)] | 21.4 µM
7 | O=C(COc1ccc(/C=N/NC(=O)c2ccccc2[NH+]([O-])O)cc1)Nc1cccc([NH+]([O-])O)c1 (configuration not stated) [SPECS AG-690/40696769 (6)] | 9 µM
